Data on 1 molecule can be found in patent publication US20060194800A1, “Pteridine derivatives as nitric oxide synthase activators” (University of Strathclyde, priority 2005, published 2006).

Each structure is given as a SMILES string.

The target of one experiment is T1, eNOS (Sus scrofa, UniProt Q28969).
T1 construct: endothelial cells that produce eNOS; endogenous in cells; host or cells: primary porcine pulmonary artery endothelial cells
T1 sequence (Q28969 2-1205 limits assumed): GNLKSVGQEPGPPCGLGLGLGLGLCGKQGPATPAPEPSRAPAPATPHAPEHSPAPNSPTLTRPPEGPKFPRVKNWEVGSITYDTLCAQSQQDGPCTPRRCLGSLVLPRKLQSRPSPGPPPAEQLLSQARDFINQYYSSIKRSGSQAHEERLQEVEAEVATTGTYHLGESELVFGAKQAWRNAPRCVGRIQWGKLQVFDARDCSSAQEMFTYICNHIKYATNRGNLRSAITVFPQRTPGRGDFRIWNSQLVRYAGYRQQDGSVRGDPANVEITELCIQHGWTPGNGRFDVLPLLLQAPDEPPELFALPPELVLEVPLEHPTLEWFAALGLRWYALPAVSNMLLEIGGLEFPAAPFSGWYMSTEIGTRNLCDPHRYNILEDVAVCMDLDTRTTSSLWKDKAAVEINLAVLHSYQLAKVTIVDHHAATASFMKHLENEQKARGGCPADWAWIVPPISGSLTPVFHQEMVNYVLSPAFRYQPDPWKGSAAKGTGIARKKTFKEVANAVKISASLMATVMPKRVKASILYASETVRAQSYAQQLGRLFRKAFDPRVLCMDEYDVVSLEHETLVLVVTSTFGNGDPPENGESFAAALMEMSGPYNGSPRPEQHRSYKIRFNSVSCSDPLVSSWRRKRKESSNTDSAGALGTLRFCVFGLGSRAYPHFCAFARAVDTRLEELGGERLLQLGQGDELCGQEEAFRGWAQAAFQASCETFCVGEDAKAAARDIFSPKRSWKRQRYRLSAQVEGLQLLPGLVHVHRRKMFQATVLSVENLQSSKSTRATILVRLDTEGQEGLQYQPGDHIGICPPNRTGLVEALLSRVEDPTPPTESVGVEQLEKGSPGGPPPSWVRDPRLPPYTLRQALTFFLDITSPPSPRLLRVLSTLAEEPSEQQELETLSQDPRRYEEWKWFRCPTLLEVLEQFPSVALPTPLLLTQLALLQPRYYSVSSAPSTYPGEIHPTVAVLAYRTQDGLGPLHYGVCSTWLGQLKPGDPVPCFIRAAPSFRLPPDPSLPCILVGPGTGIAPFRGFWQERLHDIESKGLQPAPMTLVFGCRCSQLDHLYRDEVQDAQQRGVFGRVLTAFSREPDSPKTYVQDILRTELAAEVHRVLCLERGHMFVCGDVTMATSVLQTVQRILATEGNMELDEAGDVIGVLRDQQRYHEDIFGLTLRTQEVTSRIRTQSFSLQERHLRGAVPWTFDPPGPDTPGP
Briefly: Endothelial cell assay, nitric oxide (NO2+NO3) production. The class given is cell-based, porcine. The settings on record: 30 μM in DMSO, seven days, DAHP-depleted endothelial cells. How it is done: The arterial assay is sensitive but slow to perform, and therefore a wider range of compounds was investigated in whole cell preparations. Tests have been carried out using endothelial cells that produce eNOS and stimulated macrophages that produce iNOS. Endothelial cells were isolated from porcine pulmonary artery and grown to confluency in T75 flasks. Subsequently, the cells were seeded into 6-well plates. At confluency, the medium (1 ml/well) was changed and the relevant treatment introduced to all wells in each plate (one treatment/plate). The cells were incubated for a further 7-day period and the experiment was terminated. The media from the wells of respective plates was combined (˜6 mls) and evaporated to approximately 500 μl (˜10-fold). A 50 μl aliquot was removed and any NO3 was converted to NO2 using the NO3 conversion method (Calbiochem Cat No 482702). These treated samples were then assayed using the Greiss reaction as described above giving the content of the combination of (NO2+NO3). WSG1002, as a representative compound, was incubated with a preparation of endothelial cells over seven days in order to accumulate sufficient nitric oxide for assay as described above. Controls included vehicle (0.5% DMSO) and L-NAME (an established NOS inhibitor). WSG1002 caused a doubling of nitric oxide compared with vehicle control.

A further experiment relates to rat lungs. Description: Calcium ionophore-induced pulmonary vasodilation in perfused lungs of rats treated with WSG1002. The class given is in vivo. To be noted: 14.1 mg/kg/day s.c. How it is done:
Rats were maintained in a chamber containing atmospheric air at 550 mbar for 14 days.
A group of normotensive and a group of pulmonary hypertensive rats received daily subcutaneous injections of WSG1002 in a dose of 14.1 mg/kg/day during the time that they were in the hypoxic chamber. Other groups of normotensive and pulmonary hypertensive rats had no drugs and are used as control comparison groups. These studies used lungs from the four groups of rats (1) pulmonary hypertensive and treated with WSG1002, (2) normotensive and treated with WSG1002, (3) pulmonary hypertensive and not treated with WSG1002 (4) normotensive and not treated with WSG1002.
The rats lungs were perfused at constant flow through the pulmonary artery with measurement of perfusion pressure and maintained at 37° C. […]
The lungs were precontracted with the thromboxane A2 mimetic, 9,11-dideoxy-11α,9α-epoxymethanoprostaglandin F2α (U46619, 3×10^−5 M) given as a bolus dose via an injection port. […] Following return to 20% O2, the lungs were precontracted again with a bolus dose of U46619 and relaxation responses to the endothelium-dependent vasorelaxant, calcium ionophore were measured by adding it in increasing doses to the perfusate. The data was plotted as concentration-response curves from which IC50 values were calculated using Biograph program by fitting the curves to the Hill equation y=RMax/(1+(x/EC50)ˆP).

Regarding `CC(=O)C1=Nc2c(nc(N)[nH]c2=O)NC1(C)C` [wsg1002, 6-Acetyl-2-amino-7,7-dimethyl-7,8-dihydro-3H-pteridin-4-one], the “nitric oxide production compared with vehicle control” value at eNOS is given as “doubling”. Further, the “IC50 for calcium ionophore relaxation” value worked out at 1.1 µM in the experiment on rat lungs (normotensive rats, untreated 1.5 μM) and 1.2 µM in the experiment on rat lungs (pulmonary hypertensive (hypoxic) rats, untreated 1.7 μM).
